Laboratory results: US8959984B2, “Proteome-wide quantification of small molecule binding to cellular target proteins” (priority 2007, dated 2015)
Read-outs that look alike come from different tables or passages of the source.

Assays:
MAP3K6 = molecular target: T1, MAP3K6 (Homo sapiens, UniProt O95382); test: binding to immobilized V16742 (IVA1/IVA2, HeLa lysate, MS)
T1 construct: endogenous in cells; host or cells: HeLa S3
T1 sequence (O95382 1-1288): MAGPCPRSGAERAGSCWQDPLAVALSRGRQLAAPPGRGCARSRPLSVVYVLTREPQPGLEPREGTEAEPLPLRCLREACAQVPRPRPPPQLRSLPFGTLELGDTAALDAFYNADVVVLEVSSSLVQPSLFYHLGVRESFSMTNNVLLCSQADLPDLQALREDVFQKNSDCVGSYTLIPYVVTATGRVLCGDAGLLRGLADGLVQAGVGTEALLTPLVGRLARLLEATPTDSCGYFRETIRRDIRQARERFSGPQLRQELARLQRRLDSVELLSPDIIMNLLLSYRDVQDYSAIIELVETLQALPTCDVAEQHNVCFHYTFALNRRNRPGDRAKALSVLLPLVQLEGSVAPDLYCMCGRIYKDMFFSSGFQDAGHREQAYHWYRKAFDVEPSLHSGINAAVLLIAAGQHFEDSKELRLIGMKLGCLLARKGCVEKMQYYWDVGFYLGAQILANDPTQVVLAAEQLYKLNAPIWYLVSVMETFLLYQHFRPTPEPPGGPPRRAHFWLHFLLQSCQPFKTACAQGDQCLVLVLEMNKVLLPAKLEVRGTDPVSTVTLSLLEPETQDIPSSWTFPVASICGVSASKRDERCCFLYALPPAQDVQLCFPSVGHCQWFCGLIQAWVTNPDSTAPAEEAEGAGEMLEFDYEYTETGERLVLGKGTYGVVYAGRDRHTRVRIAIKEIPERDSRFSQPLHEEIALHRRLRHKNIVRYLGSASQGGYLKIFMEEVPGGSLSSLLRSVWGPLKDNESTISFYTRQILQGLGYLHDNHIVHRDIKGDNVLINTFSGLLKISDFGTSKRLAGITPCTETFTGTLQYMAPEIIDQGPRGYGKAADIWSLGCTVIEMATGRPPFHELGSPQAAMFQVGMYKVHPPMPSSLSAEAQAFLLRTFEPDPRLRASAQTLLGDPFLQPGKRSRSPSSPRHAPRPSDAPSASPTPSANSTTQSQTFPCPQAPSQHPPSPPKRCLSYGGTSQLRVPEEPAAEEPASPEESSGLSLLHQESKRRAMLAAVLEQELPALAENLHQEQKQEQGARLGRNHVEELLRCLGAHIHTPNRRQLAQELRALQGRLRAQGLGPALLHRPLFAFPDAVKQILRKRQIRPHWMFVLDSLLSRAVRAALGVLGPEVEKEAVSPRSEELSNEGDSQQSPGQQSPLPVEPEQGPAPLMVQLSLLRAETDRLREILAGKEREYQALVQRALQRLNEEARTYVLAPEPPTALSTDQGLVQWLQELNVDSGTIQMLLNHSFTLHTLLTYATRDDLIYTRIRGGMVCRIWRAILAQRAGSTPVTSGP

TLK1 = molecular target: T2, TLK1 (Homo sapiens, UniProt Q9UKI8); test: as above
T2 construct: endogenous in cells; host or cells: HeLa S3
T2 sequence (Q9UKI8 1-766): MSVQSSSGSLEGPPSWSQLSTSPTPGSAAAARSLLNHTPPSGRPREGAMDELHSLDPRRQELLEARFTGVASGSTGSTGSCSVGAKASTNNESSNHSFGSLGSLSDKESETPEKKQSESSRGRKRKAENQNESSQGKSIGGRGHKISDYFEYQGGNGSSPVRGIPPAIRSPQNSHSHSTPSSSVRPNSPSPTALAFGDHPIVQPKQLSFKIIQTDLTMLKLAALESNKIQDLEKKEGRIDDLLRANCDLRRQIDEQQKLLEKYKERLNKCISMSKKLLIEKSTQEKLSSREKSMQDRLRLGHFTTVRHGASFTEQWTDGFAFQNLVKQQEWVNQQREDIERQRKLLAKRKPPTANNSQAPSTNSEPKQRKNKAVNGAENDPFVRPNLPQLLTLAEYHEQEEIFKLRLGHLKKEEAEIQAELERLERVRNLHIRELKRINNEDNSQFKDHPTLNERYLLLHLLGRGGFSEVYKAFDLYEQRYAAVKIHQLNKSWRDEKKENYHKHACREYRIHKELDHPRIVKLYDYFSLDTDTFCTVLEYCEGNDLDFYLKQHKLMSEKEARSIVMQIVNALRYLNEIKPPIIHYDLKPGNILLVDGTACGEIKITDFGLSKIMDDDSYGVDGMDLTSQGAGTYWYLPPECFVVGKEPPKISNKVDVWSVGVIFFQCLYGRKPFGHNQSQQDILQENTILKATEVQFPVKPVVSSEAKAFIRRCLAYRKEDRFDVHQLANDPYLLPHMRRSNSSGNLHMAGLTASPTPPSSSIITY

SNRPE = SNRPE (Homo sapiens, UniProt P62304)
CaMK2d (CAMK2D) = CaMK2d (CAMK2D) (Homo sapiens, UniProt Q13557)
[1] = average of two experiments, read-out: Kd Avg

Chain of SNRPE (P62304 whole entry): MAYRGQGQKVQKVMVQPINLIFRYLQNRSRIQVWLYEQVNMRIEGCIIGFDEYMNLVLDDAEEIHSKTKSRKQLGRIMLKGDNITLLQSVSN
Chain of CaMK2d (CAMK2D) (Q13557 whole entry): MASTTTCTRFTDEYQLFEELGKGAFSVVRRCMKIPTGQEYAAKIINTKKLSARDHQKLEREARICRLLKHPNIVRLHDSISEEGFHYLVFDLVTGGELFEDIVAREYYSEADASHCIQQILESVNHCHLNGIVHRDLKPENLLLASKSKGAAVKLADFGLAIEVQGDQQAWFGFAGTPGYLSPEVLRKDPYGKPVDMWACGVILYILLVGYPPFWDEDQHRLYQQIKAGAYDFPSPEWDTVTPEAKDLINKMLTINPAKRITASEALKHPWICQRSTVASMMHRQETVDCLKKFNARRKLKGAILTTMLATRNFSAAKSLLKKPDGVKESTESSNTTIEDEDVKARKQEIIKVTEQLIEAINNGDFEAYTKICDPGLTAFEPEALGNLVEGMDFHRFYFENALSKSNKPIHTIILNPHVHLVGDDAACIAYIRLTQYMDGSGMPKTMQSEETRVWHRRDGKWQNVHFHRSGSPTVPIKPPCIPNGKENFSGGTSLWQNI

Compound: CC(C)n1c(=O)ccc2cnc(Nc3ccc(OCCN)cc3)nc21 [V16742]
- Percent bound at various 16742 conc (MAP3K6; Experiment 1, 8.74 μM 16742): 3.57%
- Percent bound at various 16742 conc (MAP3K6; Experiment 1, 52 μM 16742): 51.68%
- Kd (MAP3K6; Experiment 1, read-out: Kd): 57.7 µM
- Percent bound at various 16742 conc (MAP3K6; Experiment 2, 1.87 μM 16742): 2.67%
- Percent bound at various 16742 conc (MAP3K6; Experiment 2, 8.74 μM 16742): 3.94%
- Percent bound at various 16742 conc (MAP3K6; Experiment 2, 52 μM 16742): 13.37%
- Kd (MAP3K6; Experiment 2, read-out: Kd): 326 µM
- Kd (MAP3K6; [1]): 192 µM
- Percent bound at various 16742 conc (TLK1; Experiment 1, 1.87 μM 16742): 1.34%
- Percent bound at various 16742 conc (TLK1; Experiment 1, 8.74 μM 16742): 2.39%
- Percent bound at various 16742 conc (TLK1; Experiment 1, 52 μM 16742): 49.12%
- Kd (TLK1; Experiment 1, read-out: Kd): 64 µM
- Percent bound at various 16742 conc (TLK1; Experiment 2, 1.87 μM 16742): 0.76%
- Percent bound at various 16742 conc (TLK1; Experiment 2, 8.74 μM 16742): 1.97%
- Percent bound at various 16742 conc (TLK1; Experiment 2, 52 μM 16742): 31.56%
- Kd (TLK1; Experiment 2, read-out: Kd): 121 µM
- Kd (TLK1; [1]): 92.4 µM

Compound: COc1cc2ncnc(Nc3ccc(F)c(Cl)c3)c2cc1OCCCN1CCOCC1 [gefitinib]
- rAVERAGE (10 nM/0 nM Gef.) (SNRPE): 0.70
- rAVERAGE (100 nM/0 nM Gef.) (SNRPE): 1.11
- rAVERAGE (1000 nM/0 nM Gef.) (SNRPE): 0.74
- rAVERAGE (10000 nM/0 nM Gef.) (SNRPE): 0.93
- rAVERAGE (10 nM/0 nM Gef.) (CaMK2d (CAMK2D)): 0.89
- rAVERAGE (100 nM/0 nM Gef.) (CaMK2d (CAMK2D)): 1.11
- rAVERAGE (1000 nM/0 nM Gef.) (CaMK2d (CAMK2D)): 0.91
- rAVERAGE (10000 nM/0 nM Gef.) (CaMK2d (CAMK2D)): 0.93
